# Reference: ChEMBL document CHEMBL3593181, “Design and synthesis of benzothiazole-6-sulfonamides acting as highly potent inhibitors of carbonic anhydrase isoforms I, II, IX and XII” (Bioorg Med Chem, 2015)
# Molecular target: Carbonic anhydrase 9 (Homo sapiens, UniProt Q16790)
# Assay: Inhibition of human carbonic anhydrase 9 by stopped flow CO2 hydration method
row,SMILES,Ki
1,Nc1cc(=O)[nH]c(SCC(=O)Nc2nc3ccc(S(N)(=O)=O)cc3s2)n1,253 nM
2,NS(=O)(=O)c1ccc2nc(NC(=O)CSc3nc(O)cc(=O)[nH]3)sc2c1,282 nM
3,Nc1nc(SCC(=O)Nc2nc3ccc(S(N)(=O)=O)cc3s2)nc2[nH]ncc12,172 nM
4,Nn1c(Cc2ccccc2)nnc1SCC(=O)Nc1nc2ccc(S(N)(=O)=O)cc2s1,244 nM
5,Cc1ccc(OCc2nnc(SCC(=O)Nc3nc4ccc(S(N)(=O)=O)cc4s3)n2N)cc1Cl,67.3 nM
6,Nn1c(COc2ccc(Cl)cc2Cl)nnc1SCC(=O)Nc1nc2ccc(S(N)(=O)=O)cc2s1,135 nM
7,NS(=O)(=O)c1ccc(NCC(=O)Nc2nc3ccc(S(N)(=O)=O)cc3s2)cc1,4.8 nM
8,N#Cc1cnn(CC(=O)Nc2nc3ccc(S(N)(=O)=O)cc3s2)c1N,276 nM
9,CSc1nn(CC(=O)Nc2nc3ccc(S(N)(=O)=O)cc3s2)c(N)c1C#N,295 nM
10,Nc1ncnc2c1cnn2CC(=O)Nc1nc2ccc(S(N)(=O)=O)cc2s1,2.8 nM
11,CSc1nn(CC(=O)Nc2nc3ccc(S(N)(=O)=O)cc3s2)c2ncnc(N)c12,2.7 nM
12,NS(=O)(=O)c1ccc2nc(NC(=O)Cn3ncc4c(=O)[nH]cnc43)sc2c1,4.1 nM
13,CSc1nn(CC(=O)Nc2nc3ccc(S(N)(=O)=O)cc3s2)c2nc[nH]c(=O)c12,4.3 nM
14,N#Cc1cnn(CC(=O)Nc2nc3ccc(S(N)(=O)=O)cc3s2)c1NC(=S)Nc1ccccc1,2.8 nM
15,CSc1nn(CC(=O)Nc2nc3ccc(S(N)(=O)=O)cc3s2)c(NC(=S)Nc2ccccc2)c1C#N,3.9 nM
16,NS(=O)(=O)c1ccc2nc(NC(=S)NCCNC(=S)Nc3nc4ccc(S(N)(=O)=O)cc4s3)sc2c1,2.1 nM
17,NS(=O)(=O)c1ccc2nc(NC(=S)N3CCN(C(=S)Nc4nc5ccc(S(N)(=O)=O)cc5s4)CC3)sc2c1,2.6 nM
18,CS/C(=N\c1nc2ccc(S(N)(=O)=O)cc2s1)NCCN/C(=N/c1nc2ccc(S(N)(=O)=O)cc2s1)SC,2.5 nM
19,CS/C(=N\c1nc2ccc(S(N)(=O)=O)cc2s1)N1CCN(/C(=N/c2nc3ccc(S(N)(=O)=O)cc3s2)SC)CC1,2.3 nM
